Test results taken from patent US11123337B2, “4-methylsulfonyl-substituted piperidine urea compounds” (MYOKARDIA, INC., priority 2015, dated 2021).

Target: bovine cardiac myosin (Bos taurus, UniProt Q9BE39)
Experiment: Myosin activation assay (PK/LDH-coupled ATPase, bovine cardiac myofibrils)
Assay type: biochemical
Conditions: AC20 = concentration at which total response is increased by twenty percent
Experimental: Small molecule agents were assessed for their ability to activate the enzymatic activity of bovine cardiac myosin using a biochemical assay that couples the release of ADP (adenosine diphosphate) from cardiac myosin to an enzymatic coupling system consisting of pyruvate kinase and lactate dehydrogenase (PK/LDH) and monitoring the absorbance decrease of NADH (at 340 nm) as a function of time. PK converts ADP to ATP (adenosine triphosphate) by converting PEP (phosphoenolpyruvate) to pyruvate. Pyruvate is then converted to lactate by LDH by converting NADH (nicotinamide adenine dinucleotide) to NAD (oxidized nicotinamide adenine dinucleotide). The source of cardiac myosin was from bovine heart in the form of skinned myofibrils. Prior to testing small molecule agents, the bovine myofibrils were assessed for their calcium responsiveness and the calcium concentration that achieves either a 50% (pCa50 or pCa=˜6) or <5% (pCa=10) activation of the myofibril system was chosen as the final condition for assessing the activation activity of the small molecule agents. All enzymatic activity was measured in a buffered solution containing 12 mM PIPES (piperazine-N,N′-bis(2-ethanesulfonic acid), 2 mM magnesium chloride at pH 6.8 (PM12 buffer). Final assay conditions were 1 mg/mL of bovine cardiac myofibrils, 0.4 mM PK/LDH, 50 uM ATP, 0.1 mg/mL BSA (bovine serum albumin), 10 ppm antifoam, 2 mM BME, 0.5 mM NADH, 1.5 mM PEP at the desired free calcium concentration required to achieve either 50% or <5% activation of the myofibrils.
A dilution series of compound was created in DMSO such that the final desired concentration of compound would be achieved in a volume of […] with a fixed DMSO concentration of 3.3% (v/v). Typically a 1 μL of the dilution series was added to a 384 well plate to achieve a 10 point dose response. Following the addition of 14 μL of a solution containing bovine cardiac myofibrils, PK/LDH and a solution of calcium (that achieved the desired activation), the enzymatic reaction was started with the addition of 15 μL of a solution containing ATP, PEP and NADH. The reaction progress was followed in a PerkinElmer Envision plate reader at ambient temperature using clear bottom plates. The plate reader was configured to read absorbance at 340 nm in kinetics mode for 15 minutes. Data were recorded as the slope of the absorbance response to time. The slopes of the absorbance response as a function of time were normalized to slopes on the plate containing DMSO. This normalized rate was then plotted as a function of small molecule concentration and the data was fitted to a four-parameter fit using EXCEL XLfit. The concentration at which the total response is increased by twenty or fifty percent is reported as AC20 or AC50.

Chain of bovine cardiac myosin (Q9BE39 whole entry): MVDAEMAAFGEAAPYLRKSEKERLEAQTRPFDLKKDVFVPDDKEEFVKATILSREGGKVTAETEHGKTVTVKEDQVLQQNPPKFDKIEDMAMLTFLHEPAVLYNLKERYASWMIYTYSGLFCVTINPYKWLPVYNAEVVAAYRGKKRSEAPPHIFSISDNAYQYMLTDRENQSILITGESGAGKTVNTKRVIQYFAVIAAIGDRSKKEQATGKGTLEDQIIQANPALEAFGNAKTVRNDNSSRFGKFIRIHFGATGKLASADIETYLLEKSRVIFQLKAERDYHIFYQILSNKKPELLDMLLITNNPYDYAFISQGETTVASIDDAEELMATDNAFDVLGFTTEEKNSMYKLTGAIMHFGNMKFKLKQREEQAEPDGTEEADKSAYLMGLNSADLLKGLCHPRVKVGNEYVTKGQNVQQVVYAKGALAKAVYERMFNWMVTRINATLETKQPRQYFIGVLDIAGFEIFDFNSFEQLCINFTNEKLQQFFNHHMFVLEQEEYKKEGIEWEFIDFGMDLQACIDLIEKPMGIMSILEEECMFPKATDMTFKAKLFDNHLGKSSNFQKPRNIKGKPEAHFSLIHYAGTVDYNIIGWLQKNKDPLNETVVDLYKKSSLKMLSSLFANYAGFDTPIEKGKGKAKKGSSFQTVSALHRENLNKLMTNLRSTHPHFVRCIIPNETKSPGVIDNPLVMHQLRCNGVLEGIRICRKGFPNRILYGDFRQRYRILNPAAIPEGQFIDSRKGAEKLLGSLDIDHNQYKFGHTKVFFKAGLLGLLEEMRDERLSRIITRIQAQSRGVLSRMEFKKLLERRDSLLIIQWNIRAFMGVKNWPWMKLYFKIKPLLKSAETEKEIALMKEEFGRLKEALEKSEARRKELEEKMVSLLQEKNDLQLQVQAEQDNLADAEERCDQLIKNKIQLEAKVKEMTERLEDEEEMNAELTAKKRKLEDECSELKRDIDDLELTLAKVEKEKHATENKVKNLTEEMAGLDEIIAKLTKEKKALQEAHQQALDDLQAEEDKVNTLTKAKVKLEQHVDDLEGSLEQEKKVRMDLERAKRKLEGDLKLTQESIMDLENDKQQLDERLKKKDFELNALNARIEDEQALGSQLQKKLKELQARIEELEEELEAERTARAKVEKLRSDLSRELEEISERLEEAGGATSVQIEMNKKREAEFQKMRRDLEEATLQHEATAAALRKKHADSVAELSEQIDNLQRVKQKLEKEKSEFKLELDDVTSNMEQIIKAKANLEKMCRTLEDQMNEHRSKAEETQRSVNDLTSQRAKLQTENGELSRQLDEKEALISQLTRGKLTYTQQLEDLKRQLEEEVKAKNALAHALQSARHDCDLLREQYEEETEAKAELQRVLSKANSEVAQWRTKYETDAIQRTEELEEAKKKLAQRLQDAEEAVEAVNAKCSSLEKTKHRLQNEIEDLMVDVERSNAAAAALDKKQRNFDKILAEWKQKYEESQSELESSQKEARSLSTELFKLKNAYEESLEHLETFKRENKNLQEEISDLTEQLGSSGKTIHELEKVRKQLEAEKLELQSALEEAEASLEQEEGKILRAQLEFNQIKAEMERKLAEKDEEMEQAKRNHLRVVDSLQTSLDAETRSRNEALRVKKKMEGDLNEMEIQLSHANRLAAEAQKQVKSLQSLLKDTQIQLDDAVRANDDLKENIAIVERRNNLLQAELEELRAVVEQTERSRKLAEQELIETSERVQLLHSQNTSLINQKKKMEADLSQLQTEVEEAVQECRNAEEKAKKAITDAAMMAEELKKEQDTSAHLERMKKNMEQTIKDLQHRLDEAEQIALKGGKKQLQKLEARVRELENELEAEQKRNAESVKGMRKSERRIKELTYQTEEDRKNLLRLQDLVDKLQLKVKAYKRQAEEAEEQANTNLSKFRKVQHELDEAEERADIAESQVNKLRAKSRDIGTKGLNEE
Chain of bovine cardiac myosin (P85100 whole entry partner): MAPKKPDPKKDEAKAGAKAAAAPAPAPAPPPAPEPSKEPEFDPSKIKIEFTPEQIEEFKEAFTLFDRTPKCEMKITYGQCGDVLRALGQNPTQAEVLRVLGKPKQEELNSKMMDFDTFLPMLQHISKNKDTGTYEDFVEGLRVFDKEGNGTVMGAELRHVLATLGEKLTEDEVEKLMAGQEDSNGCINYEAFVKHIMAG
Chain of bovine cardiac myosin (Q3SZE5 whole entry partner): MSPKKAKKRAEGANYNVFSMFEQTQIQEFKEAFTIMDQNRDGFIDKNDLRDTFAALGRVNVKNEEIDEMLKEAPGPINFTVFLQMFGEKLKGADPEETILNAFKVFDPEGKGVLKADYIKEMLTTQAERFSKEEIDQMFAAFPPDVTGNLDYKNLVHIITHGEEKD

Cn1cc(S(=O)(=O)[C@](C)(F)C2CCN(C(=O)Nc3ccc(F)nc3)CC2)c(C(F)F)n1 [Compound 257, (S)-4-(1-((3-(difluoromethyl)-1-methyl-1H-pyrazol-4-yl)sulfonyl)-1-fluoroethyl)-N-(6-fluoropyridin-3-yl)piperidine-1-carboxamide]
Myosin Activation (AC20): + (+ represents myosin activation value AC20 > 5 μM)

O=C(Nc1cnns1)N1CCC(C(F)(F)S(=O)(=O)c2cccc(F)c2)CC1 [Compound 44, 4-(difluoro((3-fluorophenyl)sulfonyl)methyl)-N-(1,2,3-thiadiazol-5-yl)piperidine-1-carboxamide]
Myosin Activation (AC20): + (+ represents myosin activation value AC20 > 5 μM)

Cn1cnc(S(=O)(=O)C2(C3CCN(C(=O)Nc4ccnnc4)CC3)CCC2)c1 [Compound 173, 4-(1-((1-methyl-1H-imidazol-4-yl)sulfonyl)cyclobutyl)-N-(pyridazin-4-yl)piperidine-1-carboxamide]
Myosin Activation (AC20): + (+ represents myosin activation value AC20 > 5 μM)

CC(F)(C1CCN(C(=O)Nc2ccnc(F)c2)CC1)S(=O)(=O)c1ccc(C(F)(F)F)cc1 (stereo not drawn) [Compound 243, 4-(1-fluoro-1-((4-(trifluoromethyl)phenyl)sulfonyl)ethyl)-N-(2-fluoropyridin-4-yl)piperidine-1-carboxamide]
Myosin Activation (AC20): ++ (++ represents myosin activation value AC20 from 2 μM-5 μM)

CC(C)(C1CCN(C(=O)Nc2ccns2)CC1)S(=O)(=O)c1cc(F)cc(F)c1 [Compound 210, 4-(2-((3,5-difluorophenyl)sulfonyl)propan-2-yl)-N-(isothiazol-5-yl)piperidine-1-carboxamide]
Myosin Activation (AC20): +++ (+++ represents myosin activation value AC20 < 2 μM)

CC(F)(C1CCN(C(=O)Nc2ccc(F)nc2)CC1)S(=O)(=O)c1cccc(F)c1 (stereo not drawn) [Compound 239, 4-(1-fluoro-1-((3-fluorophenyl)sulfonyl)ethyl)-N-(6-fluoropyridin-3-yl)piperidine-1-carboxamide]
Myosin Activation (AC20): ++ (++ represents myosin activation value AC20 from 2 μM-5 μM)

C[C@@H](O)c1cc(NC(=O)N2CCC(C(F)(F)S(=O)(=O)c3cccc(F)c3)CC2)ccn1 [Compound 98, (R)-4-(difluoro((3-fluorophenyl)sulfonyl)methyl)-N-(2-(1-hydroxyethyl)pyridin-4-yl)piperidine-1-carboxamide]
Myosin Activation (AC20): + (+ represents myosin activation value AC20 > 5 μM)

Cc1ccc(NC(=O)N2CCC(C(C)(C)S(=O)(=O)c3cc(C(F)F)nn3C)CC2)cn1 [Compound 107, 4-(2-((3-(difluoromethyl)-1-methyl-1H-pyrazol-5-yl)sulfonyl)propan-2-yl)-N-(6-methylpyridin-3-yl)piperidine-1-carboxamide]
Myosin Activation (AC20): ++ (++ represents myosin activation value AC20 from 2 μM-5 μM)

O=C(Nc1ccnnc1)N1CCC(C(F)(F)S(=O)(=O)c2ccc(-n3cncn3)cc2)CC1 [Compound 64, 4-(((4-(1H-1,2,4-triazol-1-yl)phenyl)sulfonyl)difluoromethyl)-N-(pyridazin-4-yl)piperidine-1-carboxamide]
Myosin Activation (AC20): ++ (++ represents myosin activation value AC20 from 2 μM-5 μM)

CC(F)(C1CCN(C(=O)Nc2ccnnc2)CC1)S(=O)(=O)c1ccc(OC(F)F)nc1 (stereo not drawn) [Compound 14, 4-(1-((6-(Difluoromethoxy)pyridin-3-yl)sulfonyl)-1-fluoroethyl)-N-(pyridazin-4-yl)piperidine-1-carboxamide]
Myosin Activation (AC20): +++ (+++ represents myosin activation value AC20 < 2 μM)

Cn1cc(S(=O)(=O)[C@](C)(F)C2CCN(C(=O)Nc3ccon3)CC2)c(C(F)F)n1 [Compound 21, (S)-4-(1-((3-(Difluoromethyl)-1-methyl-1H-pyrazol-4-yl)sulfonyl)-1-fluoroethyl)-N-(isoxazol-3-yl)piperidine-1-carboxamide]
Myosin Activation (AC20): + (+ represents myosin activation value AC20 > 5 μM)

Cn1nccc1S(=O)(=O)C(C)(F)C1CCN(C(=O)Nc2ccnc(F)c2)CC1 (stereo not drawn) [Compound 226, 4-(1-fluoro-1-((1-methyl-1H-pyrazol-5-yl)sulfonyl)ethyl)-N-(2-fluoropyridin-4-yl)piperidine-1-carboxamide]
Myosin Activation (AC20): + (+ represents myosin activation value AC20 > 5 μM)

Cn1nccc1S(=O)(=O)C1(C2CCN(C(=O)Nc3ccnnc3)CC2)CCC1 [Compound 174, 4-(1-((1-methyl-1H-pyrazol-5-yl)sulfonyl)cyclobutyl)-N-(pyridazin-4-yl)piperidine-1-carboxamide]
Myosin Activation (AC20): +++ (+++ represents myosin activation value AC20 < 2 μM)

Cn1cc(S(=O)(=O)C(F)(F)C2CCN(C(=O)Nc3ccc(F)nc3)CC2)c(C(F)F)n1 [Compound 81, 4-(((3-(difluoromethyl)-1-methyl-1H-pyrazol-4-yl)sulfonyl)difluoromethyl)-N-(6-fluoropyridin-3-yl)piperidine-1-carboxamide]
Myosin Activation (AC20): + (+ represents myosin activation value AC20 > 5 μM)

Cn1cc(S(=O)(=O)[C@@](C)(F)C2CCN(C(=O)Nc3ccnc(F)c3)CC2)c(C(F)F)n1 [Compound 297, (R)-4-(1-((3-(difluoromethyl)-1-methyl-1H-pyrazol-4-yl)sulfonyl)-1-fluoroethyl)-N-(2-fluoropyridin-4-yl)piperidine-1-carboxamide]
Myosin Activation (AC20): +++ (+++ represents myosin activation value AC20 < 2 μM)

CC(C)(C1CCN(C(=O)Nc2nnco2)CC1)S(=O)(=O)c1cccc(F)c1 [Compound 153, 4-(2-((3-fluorophenyl)sulfonyl)propan-2-yl)-N-(1,3,4-oxadiazol-2-yl)piperidine-1-carboxamide]
Myosin Activation (AC20): + (+ represents myosin activation value AC20 > 5 μM)

COc1ccccc1S(=O)(=O)C(C)(C)C1CCN(C(=O)Nc2ccns2)CC1 [Compound 215, N-(isothiazol-5-yl)-4-(2-((2-methoxyphenyl)sulfonyl)propan-2-yl)piperidine-1-carboxamide]
Myosin Activation (AC20): ++ (++ represents myosin activation value AC20 from 2 μM-5 μM)

O=C(Nc1ccnnc1)N1CCC(C(F)(F)S(=O)(=O)c2cnn3ccccc23)CC1 [Compound 93, 4-(difluoro(pyrazolo[1,5-a]pyridin-3-ylsulfonyl)methyl)-N-(pyridazin-4-yl)piperidine-1-carboxamide]
Myosin Activation (AC20): ++ (++ represents myosin activation value AC20 from 2 μM-5 μM)

O=C(Nc1ccnnc1)N1CCC(CS(=O)(=O)c2cccc(F)c2)CC1 [Compound 34, 4-(((3-fluorophenyl)sulfonyl)methyl)-N-(pyridazin-4-yl)piperidine-1-carboxamide]
Myosin Activation (AC20): + (+ represents myosin activation value AC20 > 5 μM)

C[C@H](O)c1cc(NC(=O)N2CCC([C@@](C)(F)S(=O)(=O)c3cn(C)nc3C(F)F)CC2)ccn1 [Compound 29, 4-((S)-1-((3-(Difluoromethyl)-1-methyl-1H-pyrazol-4-yl)sulfonyl)-1-fluoroethyl)-N-(2-((S)-1-hydroxyethyl)pyridin-4-yl)piperidine-1-carboxamide]
Myosin Activation (AC20): + (+ represents myosin activation value AC20 > 5 μM)

CC(C)(C1CCN(C(=O)Nc2ccon2)CC1)S(=O)(=O)c1ccc(C#N)cc1 [Compound 102, 4-(2-((4-cyanophenyl)sulfonyl)propan-2-yl)-N-(isoxazol-3-yl)piperidine-1-carboxamide]
Myosin Activation (AC20): + (+ represents myosin activation value AC20 > 5 μM)

CC(F)(C1CCN(C(=O)Nc2ccon2)CC1)S(=O)(=O)c1cccc(C#N)c1 (stereo not drawn) [Compound 282, 4-(1-((3-cyanophenyl)sulfonyl)-1-fluoroethyl)-N-(isoxazol-3-yl)piperidine-1-carboxamide]
Myosin Activation (AC20): ++ (++ represents myosin activation value AC20 from 2 μM-5 μM)

C[C@H](O)c1cc(NC(=O)N2CCC([C@](C)(F)S(=O)(=O)c3cccc(F)c3)CC2)ccn1 [Compound 302, 4-((R)-1-fluoro-1-((3-fluorophenyl)sulfonyl)ethyl)-N-(2-((S)-1-hydroxyethyl)pyridin-4-yl)piperidine-1-carboxamide]
Myosin Activation (AC20): + (+ represents myosin activation value AC20 > 5 μM)

Cc1ccc(NC(=O)N2CCC(C(F)(F)S(=O)(=O)c3cn(C)nc3C(F)F)CC2)cn1 [Compound 80, 4-(((3-(difluoromethyl)-1-methyl-1H-pyrazol-4-yl)sulfonyl)difluoromethyl)-N-(6-methylpyridin-3-yl)piperidine-1-carboxamide]
Myosin Activation (AC20): + (+ represents myosin activation value AC20 > 5 μM)
